Experimental findings from article PMC11188740, “A small molecule that inhibits the evolution of antibiotic resistance” (NAR Molecular Medicine, 2024) are described below.

Assay [1] addresses T1, Mfd (Escherichia coli, UniProt P30958).
T1 construct: purified His-tagged E. coli Mfd (expressed from pCA24N-Mfd)
Briefly: microscale thermophoresis (His-tag labeled Mfd); also RNAP displacement assay with purified Mfd. It is filed as binding.

The target in assay [2] is T1, Mfd. Briefly: NADH-coupled ATPase assay, Michaelis–Menten Km without ARM-1. The format is biochemical. An excerpt: NADH-coupled ATPase assay, Michaelis–Menten Km without ARM-1 on Mfd | Kinetic constants of Mfd ATPase activity determined using Michaelis–Menten modeling

The structures appear in SMILES notation.

T1 sequence (P30958 whole entry): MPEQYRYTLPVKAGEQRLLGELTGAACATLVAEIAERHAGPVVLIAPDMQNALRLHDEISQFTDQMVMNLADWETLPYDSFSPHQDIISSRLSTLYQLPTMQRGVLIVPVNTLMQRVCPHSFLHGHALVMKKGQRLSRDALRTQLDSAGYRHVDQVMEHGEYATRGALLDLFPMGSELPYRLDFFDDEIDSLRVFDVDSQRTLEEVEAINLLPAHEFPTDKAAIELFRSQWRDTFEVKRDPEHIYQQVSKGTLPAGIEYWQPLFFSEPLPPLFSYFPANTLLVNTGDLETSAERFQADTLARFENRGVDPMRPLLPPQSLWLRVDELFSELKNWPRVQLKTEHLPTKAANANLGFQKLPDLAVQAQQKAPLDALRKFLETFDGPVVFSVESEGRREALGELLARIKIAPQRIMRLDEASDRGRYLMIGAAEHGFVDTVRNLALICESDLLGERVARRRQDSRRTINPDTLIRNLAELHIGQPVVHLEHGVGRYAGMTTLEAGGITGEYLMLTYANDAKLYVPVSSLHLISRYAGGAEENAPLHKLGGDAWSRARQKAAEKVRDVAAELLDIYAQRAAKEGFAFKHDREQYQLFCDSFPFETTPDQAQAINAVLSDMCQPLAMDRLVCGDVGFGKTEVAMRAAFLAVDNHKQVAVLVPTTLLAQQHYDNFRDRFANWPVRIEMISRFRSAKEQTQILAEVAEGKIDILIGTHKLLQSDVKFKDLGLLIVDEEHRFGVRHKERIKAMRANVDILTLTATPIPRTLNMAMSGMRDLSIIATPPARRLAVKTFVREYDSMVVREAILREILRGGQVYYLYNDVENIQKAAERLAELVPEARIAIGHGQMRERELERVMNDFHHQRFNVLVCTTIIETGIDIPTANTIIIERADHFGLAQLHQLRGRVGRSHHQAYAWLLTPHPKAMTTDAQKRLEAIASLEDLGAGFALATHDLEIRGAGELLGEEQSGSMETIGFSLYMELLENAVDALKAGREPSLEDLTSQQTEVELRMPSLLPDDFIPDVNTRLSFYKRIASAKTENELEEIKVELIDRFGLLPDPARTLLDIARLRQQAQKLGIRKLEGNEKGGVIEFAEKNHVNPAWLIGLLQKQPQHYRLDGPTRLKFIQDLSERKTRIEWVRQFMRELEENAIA

Turning to `Cc1cc(Br)ccc1-c1ccc(CNCCCN(C)C)o1` [ARM-1], the Kd in assay [1] was 4.25 µM. For `Nc1ncnc2c1ncn2[C@@H]1O[C@H](COP(=O)(O)OP(=O)(O)OP(=O)(O)O)[C@@H](O)[C@H]1O` [ATP], the “K m / Mean” value in assay [2] was 0.954.
